Data published in ChEMBL document CHEMBL1129182, “Oximes: A new class of methoxytetrahydropyranyl inhibitors of leukotriene biosynthesis with high in vitro and in vivo potency” (Bioorg Med Chem Lett, 1996).
In brackets after ≈: the same amount, converted by molar mass.

How the values were obtained:
Homo sapiens = species: Homo sapiens; assay: In vitro inhibitory activity against LTB4 synthesis in A-23187 stimulated human whole blood (HB1).; format: functional
Rattus norvegicus = species: Rattus norvegicus; assay: compound was tested for oral activity in the rat using zymosan-inflamed air pouch exudate at 3 hrs post dose(RAP).; format: functional
[1] = Solubility was evaluated; format: physicochemical
[2] = pKa value was evaluated; format: physicochemical

Row | SMILES | IC50 (Homo sapiens) | solubility [1] | pKa [2] | ED50 (Rattus norvegicus)
1 | COC1(c2cc(F)cc(Sc3ccc4c(c3)OCC/C4=N\O)c2)CCOCC1 | 50 nM |  |  | 
2 | COC1(c2cc(F)cc(Sc3ccc(/C(C)=N/OCC#N)cc3)c2)CCOCC1 | 20 nM |  |  | 
3 | COC1(c2cc(F)cc(Sc3ccc(/C(C)=N/OCCF)cc3)c2)CCOCC1 | 40 nM |  |  | 
4 | COC1(c2cc(F)cc(Sc3ccccc3/C(C)=N/O)c2)CCOCC1 | > 10000 nM |  |  | 
5 | CO[C@]1(c2cnc(Sc3ccc(/C(C)=N/O)cc3)s2)CCO[C@@H](C)C1 | 40 nM |  |  | 0.3 mg/kg
6 | CO[C@]1(c2cnc(S(=O)(=O)c3ccc(/C(C)=N/OCC#N)cc3)s2)CCO[C@@H](C)C1 | 140 nM | 1 µM (≈ 0.45 µg/mL) |  | 0.5 mg/kg
7 | COC1(c2cc(F)cc(Sc3ccc4c(c3)OCC/C4=N\OCC#N)c2)CCOCC1 | 40 nM |  |  | 
8 | CO[C@]1(c2cnc(S(=O)(=O)c3ccc(/C(C)=N/O)cc3)s2)CCO[C@@H](C)C1 | 320 nM | 31 µM (≈ 12.7 µg/mL) |  | 1 mg/kg
9 | COC1(c2csc(Sc3ccc4c(c3)OCC/C4=N\OCC#N)c2)CCOCC1 | 60 nM |  |  | 0.15 mg/kg
10 | COC1(c2cc(F)cc(Sc3ccc(/C(C#N)=N/O)cc3)c2)CCOCC1 | 250 nM |  | 6.2 | 
11 | COC1(c2cc(F)cc(Sc3ccc4c(c3)CC/C4=N\O)c2)CCOCC1 | 290 nM |  |  | 
12 | COC1(c2cc(F)cc(Sc3ccc(/C(=N/O)C(F)(F)F)cc3)c2)CCOCC1 | 280 nM |  | 7.68 | 
13 | COC1(c2cc(F)cc(Sc3ccc(/C(=N/O)C(C)=O)cc3)c2)CCOCC1 | 850 nM |  | 8.4 | 
14 | COC1(c2csc(Sc3ccc4c(c3)CC/C4=N\O)c2)CCOCC1 | 130 nM |  |  | 
15 | COC1(c2cc(F)cc(Sc3ccc(/C(C)=N/OCC(=O)O)cc3)c2)CCOCC1 | 740 nM |  |  | 
16 | CO[C@]1(c2cc(F)cc(S(=O)(=O)c3ccc(/C(C)=N/OCC#N)cc3)c2)CCO[C@@H](C)C1 | 60 nM |  |  | 0.1 mg/kg
17 | C/C(=N\OC(=O)N(C)C)c1ccc(Sc2cc(F)cc(C3CCOCC3)c2)cc1 | 2610 nM |  |  | 

Now from value to compound, other results behind:

Row | IC50 (Homo sapiens) | solubility [1] | pKa [2] | SMILES | ED50 (Rattus norvegicus)
18 | 40 nM |  |  | COC1(c2csc(Sc3ccc4c(c3)CC/C4=N\OCC#N)c2)CCOCC1 | 
19 | 920 nM |  |  | COC1(c2cc(F)cc(Sc3ccc(/C(C)=N/OC(C)C)cc3)c2)CCOCC1 | 
20 | 610 nM |  |  | CCOC(=O)CO/N=C(\C)c1ccc(Sc2cc(F)cc(C3(OC)CCOCC3)c2)cc1 | 
21 | 40 nM |  |  | CO[C@]1(c2cnc(Sc3ccc(/C(C)=N/OCC#N)cc3)s2)CCO[C@@H](C)C1 | 0.3 mg/kg
22 | 140 nM |  |  | CO/N=C(\C)c1ccc(Sc2cc(F)cc([C@@]3(OC)CCO[C@@H](C)C3)c2)cc1 | 0.15 mg/kg
23 | 170 nM |  | 9.3 | CCOC(=O)/C(=N\O)c1ccc(Sc2cc(F)cc(C3(OC)CCOCC3)c2)cc1 | 
24 | 40 nM |  |  | CO[C@]1(c2cc(F)cc(Sc3ccc(/C(C)=N/OCC#N)cc3)c2)CCO[C@@H](C)C1 | 0.15 mg/kg
25 | 230 nM |  |  | COC1(c2cc(F)cc(Sc3ccc(/C(C)=N/OCCSc4nnc(C)s4)cc3)c2)CCOCC1 | 
26 | 420 nM |  |  | COC(=O)C(C)(C)CO/N=C(\C)c1ccc(Sc2cc(F)cc(C3(OC)CCOCC3)c2)cc1 | 
27 | 190 nM |  |  | COC1(c2cc(F)cc(Sc3ccc(/C(=N/O)SC)cc3)c2)CCOCC1 | 
28 | 20 nM | 4.6 µM (≈ 1.94 µg/mL) |  | CO[C@]1(c2cc(F)cc(S(=O)(=O)c3ccc(/C(C)=N/O)cc3)c2)CCO[C@@H](C)C1 | 0.1 mg/kg
29 | 50 nM |  |  | COC1(c2cc(F)cc(Sc3ccc(/C(C)=N/OC(C)=O)cc3)c2)CCOCC1 | 
30 | 40 nM | 0.6 µM (≈ 0.234 µg/mL) |  | CO[C@]1(c2cc(F)cc(Sc3ccc(/C(C)=N/O)cc3)c2)CCO[C@@H](C)C1 | 0.05 mg/kg
31 | 40 nM |  |  | COC1(c2cc(F)cc(Sc3ccc(/C(C)=N/OC(=O)C(C)(C)C)cc3)c2)CCOCC1 | 
32 | 110 nM |  |  | CO/N=C(\C)c1ccc(Sc2cc(F)cc(C3(OC)CCOCC3)c2)cc1 | 
33 | 30 nM |  |  | COC1(c2cc(F)cc(Sc3ccc4c(c3)CC/C4=N\OCC#N)c2)CCOCC1 | 
34 | 150 nM |  |  | CCOC(=O)c1csc(CO/N=C(\C)c2ccc(Sc3cc(F)cc(C4(OC)CCOCC4)c3)cc2)n1 | 
35 | 40 nM |  |  | COC1(c2csc(Sc3ccc4c(c3)OCC/C4=N\O)c2)CCOCC1 | 
36 | 25 nM |  |  | COC1(c2cc(F)cc(OCc3ccc4c(ccc(=O)n4C)c3)c2)CCOCC1 [ZD-2138] | 
